From patent publication US20100298377A1, “NOVEL SUBSTITUTED INDAZOLES, THE PREPARATION THEREOF AND USE OF SAME IN THERAPEUTICS” (SANOFI-AVENTIS, priority 2007, published 2010)

Tests used:
[1] = test system: MIA PaCa-2 cells (human pancreatic carcinoma cells); test: Proliferation of MIA PaCa-2 cells, intracellular ATP, CellTiter-Glo test; assay type: cell-based; settings: 96 hours
From the text: b. Study of the Proliferation of Human Tumoral MIA PaCa-2, C-433, LnCaP and MCF7 Cells via Assay of the Intracellular ATP Using the Celltiter-Glo™ Test
The kit CellTiter-Glo™ for measuring cell viability via luminescence ([…]) is a homogeneous method for determining the number of viable cells in culture, based on quantification of the ATP present in the cells, and which indicates the presence of metabolically active cells.
The cell lines used in this test were the following: MIA PaCa-2 cells (human pancreatic carcinoma cells, ATCC, CRL-1420), C-433 cells (human Ewing sarcoma cells, DSMZ, ACC 268), LNCaP clone FGC cells (human prostate carcinoma cells, ATCC, CRL-1740), MCF7 cells (human breast carcinoma cells, ECACC, #86012803). The cells MIAPaCa-2 and LNCaP were cultured in D-MEM culture medium (Invitrogen Gibco, #419656-039) containing 10% foetal calf serum (FCS, Invitrogen Gibco, #10500-064) and 2 mM L-Glutamine (Invitrogen Gibco, #25030-024); the C-433 cells were cultured in MCCoy's 5A culture medium (Invitrogen Gibco, #26600-023)/RPMI 1640 (Invitrogen Gibco, #31870-025) (50/50) containing 10% FCS and 2 mM L-glutamine; the MCF7 cells were cultured in EMEM culture medium (EMEM, Biowhittaker, Lonza, #BE12-662F) containing 10% FCS and 2 mM L-Glutamine.
Evaluation of the Cell Viability via Luminescence Measurement: Celltiter-Glo™ Test
On day 1, the cells were inoculated at 1000 (C-433), 2500 (MCF7) and 10000 (LNCaP and MIA PaCa-2) cells per well in black-bottomed 96-well microplates (NUNC fluoronunc, Fisherbioblock 2311K) in 135 μl of whole culture medium and incubated at 37° C., 5% CO2, for 3 to 6 hours. The cells were then incubated with increasing concentrations of molecules diluted in dimethyl sulfoxide (DMSO, Sigma D2650). The molecules were added in a volume of 15 μl of a 10-fold concentrated solution in a final volume of 150 μl, the final percentage of DMSO being 0.1%. The cells were incubated at 37° C., 5% CO2, for 96 hours. After 4 days of treatment with the molecules, the CellTiter-Glo™ was performed by following the manufacturer's instructions (Kit Celltiter-Glo Luminescent, PROMEGA #G7571). Briefly, the cell plates were equilibrated for about 30 minutes at RT and 100 μl per well of Celltiter-Glo reagent were added. The cells were incubated for 1 hour at RT for lysis of the cells and stabilization of the signal. The intracellular ATP was quantified by measuring the luminescence in rlu units (relative luminescence units), 96 hours after initiation of the treatment, using a luminescence counter (Wallac). The tests were performed in six replicates.
(§1) i) the mean±s.e.m. of each series of well replicates was calculated;
ii) the maximum response is given by positive control wells containing untreated cells; this control was performed in 12 replicates;
iii) the minimum response is given by cell-free and untreated negative control wells; this control was performed in 6 replicates;
iv) using these maximum (100%) and minimum (0%) response values, respectively, the data were normalized to give a percentage relative to the maximum response;
(§2) The IC50 values were calculated by […] with the XLfit software (IDBS, UK) using formula 205.

[2] = test system: MEF-IGF1 murine fibroblast cells; test: IGF1-dependent proliferation of MEF-IGF1 cells via incorporation of [14C]-thymidine; assay type: cell-based; settings: Mus musculus, Fibroblast; [14C]-thymidine incorporation, IGF1 stimulated, 72 hours; read-out: IC50 MEF-IGF
From the text: a. Study of the IGF1-Dependent Proliferation of MEF-IGF1 Murine Fibroblast Cells Measured via Incorporation of [14C]-Thymidine
This test is based on the incorporation of [^14C]-thymidine into the DNA of the cells for the S phase of the cell cycle during cell division. The cell line used in this test is the MEF/3T3 Tet-Off Clone 18 line obtained by stable transfection of the human receptor IGF1R in murine MEF/3T3 Tet-Off fibroblasts. To measure the IGF1-dependent cell proliferation, the cells were deprived of serum and cultured for 3 days in the serum-free culture medium in the presence of the growth factor IGF1 which stimulates the proliferation of MEF-IGF1 cells.
Test of Incorporation of [^14C]-Thymidine into MEF-IGF1 Cells
On day 1, the cells were inoculated with 7500 cells per well in Cytostar 96-well microplates (Amersham (GE) RPNQ0162) in 200 μl of EMEM medium (EMEM, Biowhittaker, #BE12-662F) containing 10% foetal calf serum (FCS, TET-BD Biosciences Tet System Approved FBS US-Sourced, #8630-1) and 1% PSG (Penicillin-Streptomycin-Glutamine (PSG), Gibco #10378-016), and incubated at 37° C., 5% CO2, for 24 hours. On day 2, the cells were washed in the FCS-free EMEM culture medium containing 1% PSG, and incubated in 170 μl of this serum-free culture medium at 37° C., 5% CO2, for 24 hours. On day 3, the cells were incubated with 10 μl of IGF1 (2 μg/ml of final concentration; recombinant human IGF-1, R & D Systems, #291-G1), 10 μl (0.1 μCi) of [^14C]-Thymidine (NEN NEC-568) plus 10 μl of increasing concentrations of the test molecules, diluted in dimethyl sulfoxide (DMSO, Sigma D2650). The molecules were added in a volume of 10 μl of a 20-fold concentrated solution in a final volume of 200 μl, the final percentage of DMSO being 0.1%. The treated cells were incubated at 37° C., 5% CO2, for 72 hours. The incorporation of [^14C]-Thymidine was quantified in cpm units (counts per minute) by counting the radioactivity 72 hours after the start of the treatment, using a Micro-Beta radioactivity counter (Perkin-Elmer). The tests were performed in duplicate.
as §1
ii) the background noise is calculated by preparing cell-free, IGF1-free and untreated control wells; this control was performed in 4 replicates. The background noise was removed at each measurement;
iii) the maximum response is given by positive control wells containing cells in the presence of IGF1 but untreated; this control was performed in 4 replicates;
iv) the minimum response is given by negative control wells containing IGF1-free and untreated cells; this control was performed in 4 replicates;
as §2

Structure (SMILES)	IC50 [1]	IC50 [2]
O=C(Nc1ccc2[nH]ncc2c1)O[C@@H](c1ccc(Cl)c(Cl)c1)[C@@H]1CCCCN1 [Ex 38b, (S)-(3,4-Dichlorophenyl)[(2S)-piperid-2-yl]methyl 1H-indazol-5-ylcarbamate]	–	0.963 µM
O=C(Nc1ccc2[nH]ncc2c1)O[C@H](c1ccc(Cl)c(Cl)c1)[C@H]1CCCCN1 [Ex 37, (R)-(3,4-Dichlorophenyl)[(2R)-piperid-2-yl]methyl 1H-indazol-5-ylcarbamate]	2.45 µM	0.278 µM
O=C(Nc1ccc2[nH]ncc2c1)N[C@@H](c1ccc(Cl)c(Cl)c1)[C@@H]1CCCCN1 [Ex 4, 1-{(S)-(3,4-Dichlorophenyl)[(2S)-piperid-2-yl]methyl}-3-(1H-indazol-5-yl)urea]	3.42 µM	0.5 µM
O=C(Nc1ccc2[nH]ncc2c1)NC(c1cc(F)cc(Cl)c1)C1CCCCN1 (stereo not shown) [Ex 5, 1-[(3-Chloro-5-fluorophenyl)(piperid-2-yl)methyl]-3-(1H-indazol-5-yl)urea]	7.1 µM	< 0.1 µM
S=C(Nc1ccc2[nH]ncc2c1)N[C@@H](c1ccc(Cl)c(Cl)c1)[C@@H]1CCCCN1 [Ex 31, 1-{(S)-(3,4-Dichlorophenyl)[(2S)-piperid-2-yl]methyl}-3-(1H-indazol-5-yl)thiourea]	6.25 µM	1.27 µM
CN1CCCCC1C(NC(=O)Nc1ccc2[nH]nc(C#Cc3cccnc3)c2c1)c1ccccc1 [Ex 25, 1-[(1-Methylpiperid-2-yl)(phenyl)methyl]-3-[3-(pyrid-3-ylethynyl)-1H-indazol-5-yl]urea((S,2S),(R,2R))]	–	0.366 µM
CN1CCCCC1C(NC(=O)Nc1cc(F)c2[nH]ncc2c1)c1ccccc1 [Ex 21, 1-(7-Fluoro-1H-indazol-5-yl)-3-[(1-methylpiperid-2-yl)(phenyl)methyl]urea((S,2S),(R,2R))]	–	2.82 µM
O=C(Nc1ccc2[nH]ncc2c1)O[C@@H](c1cccc(Br)c1)[C@@H]1CCCCN1 [Ex 46]	–	0.546 µM
O=C(Nc1ccc2[nH]ncc2c1)OC(c1cc(Cl)cc(Cl)c1)C1CCCCN1 [Ex 34, (3,5-Dichlorophenyl)[piperid-2-yl]methyl 1H-indazol-5-ylcarbamate((S,2S),(R,2R))]	2.91 µM	0.6 µM
O=C(Nc1ccc2[nH]ncc2c1)O[C@@H](c1cc(F)cc(Cl)c1)[C@@H]1CCCCN1 [Ex 35, (S)-(3-Chloro-5-fluorophenyl)[(2S)-piperid-2-yl]methyl 1H-indazol-5-ylcarbamate]	3.1 µM	0.56 µM

More lines, main results first:

IC50 [1]	Structure (SMILES)	IC50 [2]
6.1 µM	Cc1n[nH]c2ccc(NC(=O)NC(c3ccccc3)C3CCCCN3C)cc12 [Ex 18, 3-Methyl-5-({[(1-methylpiperid-2-yl)(phenyl)methyl]carbamoyl}amino)-1H-indazole ((S,2S),(R,2R))]	0.29 µM
> 10 µM	CN1CCCCC1C(NC(=O)Nc1ccc2[nH]ncc2c1)c1cc(F)cc(Cl)c1 (stereo not shown) [Ex 11, 1-[(3-Chloro-5-fluorophenyl)(1-methylpiperid-2-yl)methyl]-3-(1H-indazol-5-yl)urea]	2.92 µM
10 µM	O=C(Nc1ccc2[nH]ncc2c1)N[C@@H](c1cc(F)cc(Cl)c1)[C@@H]1CCCCN1 [Ex 3, 1-{(S)-(3-Chloro-5-fluorophenyl)[(2S)-piperid-2-yl]methyl}-3-(1H-indazol-5-yl)urea]	0.79 µM
10 µM	CN1CCCCC1C(OC(=O)Nc1ccc2[nH]ncc2c1)c1cc(F)cc(Cl)c1 (stereo not shown) [Ex 36, (3-Chloro-5-fluorophenyl)(1-methylpiperid-2-yl)methyl 1H-indazol-5-ylcarbamate]	0.77 µM
1.45 µM	CN1CCCCC1C(NC(=O)Nc1ccc2[nH]nc(-c3ccncc3)c2c1)c1ccccc1 [Ex 13, 1-[(1-Methylpiperid-2-yl)(phenyl)methyl]-3-(3-pyrid-4-yl-1H-indazol-5-yl)urea((S,2S),(R,2R))]	5.12 µM
1.3 µM	CN1CCCCC1C(NC(=O)Nc1ccc2[nH]nc(C#Cc3ccc(F)cc3)c2c1)c1ccccc1 [Ex 24, 1-{3-[(4-Fluorophenyl)ethynyl]-1H-indazol-5-yl}-3-[(1-methylpiperid-2-yl)(phenyl)methyl]urea((S,2S),(R,2R))]	0.86 µM
